According to US8524750B2, “(Pyrazol-3-yl)-1,3,4-thiadiazol-2-amine and (pyrazol-3-yl)-1,3,4-thiazol-2-amine compounds” (Glaxo Group Limited, priority 2009, dated 2013):
Converted amounts (≈) assume the structure as drawn. “And” between values parts separate entries of the source, which are not always exact repeats. Equal values may be shown once. Read-outs that look alike come from different tables or passages of the source.

Experiments:
[1] = biological target: T1, Mycobacterium tuberculosis InhA (Mycobacterium tuberculosis, UniProt P9WGR1); experiment: Mycobacterium tuberculosis InhA Inhibition Assay (Enzyme Assay); assay type: biochemical; settings: 5 nM InhA, 50 μM DDCoA, 50 μM NADH, PIPES buffer pH 6.8, initial velocities of NADH consumption
T1 construct: made in house; host or cells: E. coli
T1 sequence (P9WGR1 whole entry, looked up): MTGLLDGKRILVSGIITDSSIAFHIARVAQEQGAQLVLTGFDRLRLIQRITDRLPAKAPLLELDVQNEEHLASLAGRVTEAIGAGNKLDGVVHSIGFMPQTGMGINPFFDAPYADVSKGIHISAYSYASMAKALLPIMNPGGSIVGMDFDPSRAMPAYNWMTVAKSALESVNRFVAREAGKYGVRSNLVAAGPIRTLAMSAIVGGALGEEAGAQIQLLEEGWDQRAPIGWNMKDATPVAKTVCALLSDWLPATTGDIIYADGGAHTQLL
Method: Mycobacterium tuberculosis InhA Inhibition Assay (Enzyme Assay)
InhA is able to reduce 2-trans enoyl-CoA esters with concomitant oxidation of NADH to NAD^+. The assay format is based on the kinetic detection of NADH consumption.
Assay for InhA inhibition is carried out with mycobacterium recombinant protein expressed and purified form E. coli. Standard assay conditions for the determination of kinetic constants and inhibitors activity use 5 nM of InhA, 50 μM of Dodecenoyl-CoA synthesized and purified as described by Quernard et al (DDCoA) and 50 μM of NADH as substrates, and it is carried out in 30 mM PIPES buffer pH 6.8, containing 0.05% of BSA. […] Triclosan is used as positive control in every experiment. One μl of compounds is added to the wells containing 25 μl of the DDCoA+NADH mix, the reaction is started by adding 50 μl of the enzyme solution. Fluorescence from NADH is followed at room temperature during 20 minutes in a fluorescent plate reader (excitation at 340 nm; emission at 480 nm). IC50 values are determined using initial velocities of NADH consumption.
Quernard A, Sacchettini J C, Dessen A, et al. Enzymatic characterization of the target for isoniazid in Mycobacterium tuberculosis. Biochemistry 1995; 34:8235-41.

[2] = test system: Mycobacterium tuberculosis H37Rv; experiment: Mycobacterium tuberculosis H37Rv Inhibition Assay (Whole Cell Assay); assay type: cell-based; settings: ATCC 25618 / H37Rv, H37Rv strain (ATCC25618), Middlebrook 7H9, six days at 37° C., resazurin fluorescence after 48 hours

SMILES | IC50 ([1]; read-out: IC50 value) [nM] | MIC [2] [µM] | IC50 ([1]; IC50 value)
Cc1csc(C(C)c2nnc(Nc3ccn(Cc4cccc(Cl)c4F)n3)s2)n1 (stereo not drawn) [Example 33, N-{1-[(3-chloro-2-fluorophenyl)methyl]-1H-pyrazol-3-yl}-5-[1-(4-methyl-1,3-thiazol-2-yl)ethyl]-1,3,4-thiadiazol-2-amine] | < 115 | 1 to 4 (≈ 0.435 to 1.74 µg/mL) | –
O=[N+]([O-])c1ccn(Cc2nnc(Nc3ccn(Cc4c(F)cccc4Cl)n3)s2)n1 [Example 52, N-{1-[(2-chloro-6-fluorophenyl)methyl]-1H-pyrazol-3-yl}-5-[(3-nitro-1H-pyrazol-1-yl)methyl]-1,3,4-thiadiazol-2-amine] | – | > 10 | 115 to 230 nM
Cc1ccn(Cc2nnc(Nc3ccn(Cc4c(F)cccc4Cl)n3)s2)n1 [Example 39, N-{1-[(2-chloro-6-fluorophenyl)methyl]-1H-pyrazol-3-yl}-5-[(3-methyl-1H-pyrazol-1-yl)methyl]-1,3,4-thiadiazol-2-amine] | < 124 | 1 to 4 (≈ 0.404 to 1.62 µg/mL) | –
Cc1csc([C@](C)(O)c2nnc(Nc3ccn(Cc4c(F)cccc4F)n3)s2)n1 (single isomer, unassigned) [Example 89] | – | – | 4.6 nM and < 115 nM
CC(c1nc(C(F)(F)F)cs1)c1nnc(Nc2ccn(Cc3c(F)cccc3Cl)n2)s1 (stereo not drawn) [Example 31, N-{1-[(2-chloro-6-fluorophenyl)methyl]-1H-pyrazol-3-yl}-5-{1-[4-(trifluoromethyl)-1,3-thiazol-2-yl]ethyl}-1,3,4-thiadiazol-2-amine] | < 102 | > 10 | –
Cc1cc([N+](=O)[O-])nn1Cc1nnc(Nc2ccn(Cc3c(Cl)cccc3Cl)n2)s1 [Example 65, N-{1-[(2,6-dichlorophenyl)methyl]-1H-pyrazol-3-yl}-5-[1-(5-methyl-3-nitro-1H-pyrazol-1-yl)methyl]-1,3,4-thiadiazol-2-amine] | > 1070 | – | –
Cc1ccn(C(C)c2nnc(Nc3ccn(Cc4cccc(Cl)c4F)n3)s2)n1 (stereo not drawn) [Example 14, N-{1-[(3-chloro-2-fluorophenyl)methyl]-1H-pyrazol-3-yl}-5-[1-(3-methyl-1H-pyrazol-1-yl)ethyl]-1,3,4-thiadiazol-2-amine] | < 120 | 1 to 4 (≈ 0.418 to 1.67 µg/mL) | –
Cc1cc(C(F)(F)F)nn1Cc1nnc(Nc2ccn(Cc3ccccc3Cl)n2)s1 [Example 48, N-{1-[(2-chlorophenyl)methyl]-1H-pyrazol-3-yl}-5-{[5-methyl-3-(trifluoromethyl)-1H-pyrazol-1-yl]methyl}-1,3,4-thiadiazol-2-amine] | – | > 10 | 110 to 220 nM
Cc1cc(C)n(C(C)c2nnc(Nc3ccn(Cc4ccccc4Br)n3)s2)n1 (stereo not drawn) [Example 3, N-{1-[(2-bromophenyl)methyl]-1H-pyrazol-3-yl}-5-[1-(3,5-dimethyl-1H-pyrazol-1-yl)ethyl]-1,3,4-thiadiazol-2-amine] | < 109 | 1 to 4 (≈ 0.458 to 1.83 µg/mL) | –
CCOc1c(F)ccc(F)c1Cn1ccc(Nc2nnc(C(C)n3nc(C)cc3C)s2)n1 (stereo not drawn) [Example 82, 5-[1-(3,5-dimethyl-1H-pyrazol-1-yl)ethyl]-N-(1-{[2-(ethyloxy)-3,6-difluorophenyl]methyl}-1H-pyrazol-3-yl)-1,3,4-thiadiazol-2-amine] | – | 4 to 10 (≈ 1.84 to 4.6 µg/mL) | < 109 nM
Cc1cc(C)n(C(C)c2nnc(Nc3ccn(Cc4cc(C(F)(F)F)ccc4C(F)(F)F)n3)s2)n1 (stereo not drawn) [Example 8, N-(1-{[2,5-bis(trifluoromethyl)phenyl]methyl}-1H-pyrazol-3-yl)-5-[1-(3,5-dimethyl-1H-pyrazol-1-yl)ethyl]-1,3,4-thiadiazol-2-amine] | < 97 | > 10 | –
Cc1cc(C)n([C@H](C)c2nnc(Nc3ccn(Cc4c(F)cccc4Cl)n3)s2)n1 (single isomer, unassigned) [Example 68] | < 116 | > 10 | –
Cc1csc([C@](C)(O)c2nnc(Nc3ccn(Cc4c(F)cccc4Cl)n3)s2)n1 (single isomer, unassigned) [Example 70] | < 111 | ≤ 1 | –
Cc1csc(C(C)(O)c2nnc(Nc3ccn(Cc4c(F)cccc4F)n3)s2)n1 (racemic) [Example 78, 1-[5-({1-[(2,6-difluorophenyl)methyl]-1H-pyrazol-3-yl}amino)-1,3,4-thiadiazol-2-yl]-1-(4-methyl-1,3-thiazol-2-yl)ethanol] | – | ≤ 1 | < 115 nM
Cc1csc(C(C)c2nnc(Nc3ccn(Cc4cccc(C)c4F)n3)s2)n1 (stereo not drawn) [Example 25, N-{1-[(2-fluoro-3-methylphenyl)methyl]-1H-pyrazol-3-yl}-5-[1-(4-methyl-1,3-thiazol-2-yl)ethyl]-1,3,4-thiadiazol-2-amine] | < 121 | 1 to 4 (≈ 0.415 to 1.66 µg/mL) | –
Cc1csc(C(C)(O)c2nnc(Nc3ccn(Cc4c(F)cccc4Cl)n3)s2)n1 (racemic) [Example 30, 1-[5-({1-[(2-chloro-6-fluorophenyl)methyl]-1H-pyrazol-3-yl}amino)-1,3,4-thiadiazol-2-yl]-1-(4-methyl-1,3-thiazol-2-yl)ethanol] | < 111 | ≤ 1 | –
Cc1cc(C)n(C(C)c2nnc(Nc3ccn(Cc4ccccc4C)n3)s2)n1 (stereo not drawn) [Example 20, 5-[1-(3,5-dimethyl-1H-pyrazol-1-yl)ethyl]-N-{1-[(2-methylphenyl)methyl]-1H-pyrazol-3-yl}-1,3,4-thiadiazol-2-amine] | < 127 | 1 to 4 (≈ 0.394 to 1.57 µg/mL) | –
Cc1ccn(C(C)c2nnc(Nc3ccn(Cc4ccccc4Br)n3)s2)n1 (stereo not drawn) [Example 5, N-{1-[(2-bromophenyl)methyl]-1H-pyrazol-3-yl}-5-[1-(3-methyl-1H-pyrazol-1-yl)ethyl]-1,3,4-thiadiazol-2-amine] | < 113 | 4 to 10 (≈ 1.78 to 4.44 µg/mL) | –
Cc1cc(C)n(C(C)c2nnc(Nc3ccn(Cc4c(Cl)ccc(C)c4F)n3)s2)n1 (stereo not drawn) [Example 22, N-{1-[(6-chloro-2-fluoro-3-methylphenyl)methyl]-1H-pyrazol-3-yl}-5-[1-(3,5-dimethyl-1H-pyrazol-1-yl)ethyl]-1,3,4-thiadiazol-2-amine] | < 112 | 1 to 4 (≈ 0.446 to 1.78 µg/mL) | –
FC(F)(F)c1ccn(Cc2nnc(Nc3ccn(Cc4ccccc4Cl)n3)s2)n1 [Example 59, N-{1-[(2-chlorophenyl)methyl]-1H-pyrazol-3-yl}-5-{[3-(trifluoromethyl)-1H-pyrazol-1-yl]methyl}-1,3,4-thiadiazol-2-amine] | 227 to 1140 | > 10 | –
FC(F)(F)c1ccn(Cc2nnc(Nc3ccn(Cc4ccccc4)n3)s2)n1 [Example 61, N-[1-(phenylmethyl)-1H-pyrazol-3-yl]-5-{[3-(trifluoromethyl)-1H-pyrazol-1-yl]methyl}-1,3,4-thiadiazol-2-amine] | 247 to 1230 | > 10 | –
Cc1cc(C)n(C(C)c2nnc(Nc3ccn(Cc4cccc(Cl)c4F)n3)s2)n1 (stereo not drawn) [Example 7, N-{1-[(3-chloro-2-fluorophenyl)methyl]-1H-pyrazol-3-yl}-5-[1-(3,5-dimethyl-1H-pyrazol-1-yl)ethyl]-1,3,4-thiadiazol-2-amine] | < 116 | ≤ 1 | –
Cc1cc(C(F)F)nn1Cc1nnc(Nc2ccn(Cc3ccccc3)n2)s1 [Example 45, 5-{[3-(difluoromethyl)-5-methyl-1H-pyrazol-1-yl]methyl}-N-[1-(phenylmethyl)-1H-pyrazol-3-yl]-1,3,4-thiadiazol-2-amine] | – | > 10 | 125 to 249 nM
Cc1csc(C(C)(O)c2nnc(Nc3ccn(Cc4cccc(N)c4F)n3)s2)n1 (stereo not drawn) [Example 88, 1-[5-({1-[(3-amino-2-fluorophenyl)methyl]-1H-pyrazol-3-yl}amino)-1,3,4-thiadiazol-2-yl]-1-(4-methyl-1,3-thiazol-2-yl)ethanol] | < 116 | – | –
